Among the data in patent US10959432B2, “Microbiocidal oxadiazole derivatives” (Syngenta Participations AG, priority 2016, dated 2021) are pest or weed control, inhibition and melting point values, retold here.

Data set [1] deals with Puccinia recondita f. sp. tritici. The data set can be described thus: Fungicidal activity against Puccinia recondita f. sp. tritici / wheat / leaf disc preventative (brown rust). Type of data set: in vivo. Conditions: foliar, 200 ppm in the applied formulation, wheat leaf segments cv. Kanzler, preventative (inoculated 1 day after application), assessed 7 to 9 days after application, read-out: disease control compared to untreated control leaf disks. In short, it runs like this:
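Preventative leaf-segment test: compound sprayed at 200 ppm onto wheat (cv. Kanzler) segments, brown rust spores applied 1 day after. Kept at 19C and 75% rh under 12 h light/dark cycles; disease control versus untreated check read 7 to 9 days post-application.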

Data set [2] has the same test system. Description: Fungicidal activity against Puccinia recondita f. sp. tritici / wheat / leaf disc curative (brown rust). Type of data set: in vivo. The note with it: foliar, 200 ppm in the applied formulation, wheat leaf segments cv. Kanzler, curative (applied 1 day after inoculation), assessed 6 to 8 days after application, read-out: disease control compared to untreated control leaf disks. An outline of the steps:
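Curative test: compound, diluted from DMSO stock into water, applied one day after spore inoculation of wheat (cv. Kanzler) leaf segments kept on agar in darkness at 19° C. and 75% RH. Climate-cabinet incubation (19° C., 75% RH, 12 h photoperiod); disease control relative to untreated read 6–8 days post-application.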

Data set [3] has as its system Phakopsora pachyrhizi. Description: Fungicidal activity against Phakopsora pachyrhizi / soybean / leaf disc preventative (Asian soybean rust). The class given is in vivo. Conditions: foliar, 200 ppm in the applied formulation, soybean leaf disks, preventative (inoculated one day after application), assessed 12 to 14 days after application, read-out: disease control compared to untreated control leaf disks. In short, it runs like this: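 Preventative test: compound applied to soybean leaf discs a day before spore inoculation of the lower surface. Discs kept at 20° C and 75% rh, first 24-36 h in darkness, then under 12 h light/day; disease control relative to untreated discs rated 12 to 14 days post-application.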

For data set [4], the system named is Glomerella laqenarium (Colletotrichum lagenarium). Description: Fungicidal activity against Glomerella lagenarium (Colletotrichum lagenarium) liquid culture / cucumber / preventative (anthracnose). The class given is cell-based. The note with it: Colletotrichum orbiculare; 20 ppm in the applied formulation; liquid culture in PDB, 24° C., 3 to 4 days after application; read-out: disease control compared to untreated control (inhibition of growth measured photometrically). In short, it runs like this:
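Test compound, applied from DMSO solution, is combined with PDB containing conidia taken from cryogenic storage. After 3–4 days at 24 °C, growth is measured photometrically and antifungal activity expressed as percent relative to untreated control.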

Data set [5] concerns Uromyces viciae-fabae. The data set can be described thus: Fungicidal activity against Uromyces viciae-fabae / field bean / leaf disc preventative (faba-bean rust). The note with it: foliar, 288 h, 100 ppm in the applied formulation, field bean leaf discs, preventative (inoculated two hours after application), assessed 12 days after application, read-out: disease control compared to untreated control leaf discs. Type of data set: in vivo. An outline of the steps:
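Field bean leaf discs on water agar treated with 10 μl compound in acetone plus spreader, then spray-inoculated on the lower surface with Uromyces viciae-fabae spores 2 h later. Incubation at 22 °C, 18 h day, 70% RH; percent disease control versus untreated scored 12 days after application, compounds at 100 ppm.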

A word on the inhibition: it is the share of the control response that was lost under treatment. The melting point is the temperature, or range, at which the solid turns liquid. In the case of `CC1CC(NC(=O)c2ccc(-c3noc(C(F)(F)F)n3)cc2F)=NO1` (stereo not shown) [Compound 1b.15, 2-fluoro-N-(5-methyl-4,5-dihydroisoxazol-3-yl)-4-[5-(trifluoromethyl)-1,2,4-oxadiazol-3-yl]benzamide], the melting point fell in the range of 152.5 to 155.9 °C. In addition, the pest or weed control at 200 ppm in data set [1] was no less than 80%. Moreover, the pest or weed control at 200 ppm in data set [2] is no less than 80%. Further, the pest or weed control at 200 ppm in data set [3] was no less than 80%. The inhibition at 20 ppm in data set [4] was no less than 80%. For the same compound, the pest or weed control at 100 ppm in data set [5] was no less than 80%.

For `O=C(NCC1CCOC1)c1ccc(-c2noc(C(F)(F)F)n2)cc1F` (stereo not shown) [Compound 1b.16, 2-fluoro-N-(tetrahydrofuran-3-ylmethyl)4[5(trifluoromethyl)-1,2,4-oxadiazol-3-yl]benzamide], the melting point lay in the range of 124.2 to 126.2 °C. The pest or weed control at 200 ppm in data set [1] was no less than 80%. For the same compound, in data set [2], the pest or weed control at 200 ppm was no less than 80%. In addition, the pest or weed control at 200 ppm in data set [3] was no less than 80%. For the same compound, the inhibition at 20 ppm in data set [4] was no less than 80%. The pest or weed control at 100 ppm in data set [5] is no less than 80%.

The compound `O=C(NCC1CCCC1)c1ccc(-c2noc(C(F)(F)F)n2)cc1F` [Compound 2b.8, N (cyclopentylmethyl)-2-fluoro-4-[5-(trifluoromethyl)-1,2,4-oxadiazol-3-yl]benzamide] had a melting point of 122 to 125.6 °C. Besides, in data set [3], the pest or weed control at 200 ppm was no less than 80%. Moreover, the inhibition at 20 ppm in data set [4] is no less than 80%. The pest or weed control at 100 ppm in data set [5] was no less than 80%.

In turn, `CC#CC(C)(C)NC(=O)c1ccc(-c2noc(C(F)(F)F)n2)cc1` [Compound 3a.5, N-(1,1-dimethylbut-2-ynyl)-4-[5-(trifluoromethyl)-1,2,4-oxadiazol-3-yl]benzamide] yielded a melting point of 104 to 105.1 °C. The pest or weed control at 200 ppm in data set [1] was no less than 80%. For the same compound, the pest or weed control at 200 ppm in data set [2] is no less than 80%. In addition, the pest or weed control at 200 ppm in data set [3] was no less than 80%. Further, the pest or weed control at 100 ppm in data set [5] was no less than 80%.

As for `CC(C)(CO)NC(=O)c1ccc(-c2noc(C(F)(F)F)n2)cc1` [Compound 3a.17, N-(2-hydroxy-1,1-dimethyl-ethyl)-4-[5-(trifluoromethyl)-1,2,4-oxadiazol-3-yl]benzamide], the melting point was in the range of 130 to 135 °C. The pest or weed control at 200 ppm in data set [1] was no less than 80%. The pest or weed control at 200 ppm in data set [2] was no less than 80%. Besides, in data set [4], the inhibition at 20 ppm is no less than 80%. The pest or weed control at 100 ppm in data set [5] was no less than 80%.

`CC(C)CC(C)NC(=O)c1ccc(-c2noc(C(F)(F)F)n2)cc1F` (stereo not shown) [Compound 3b.7, N-(1,3-dimethylbutyl)-2-fluoro-4-[5-(trifluoromethyl)-1,2,4-oxadiazol-3-yl]benzamide] registered a melting point of 108.5 to 110.4 °C. The pest or weed control at 200 ppm in data set [1] was no less than 80%. The pest or weed control at 200 ppm in data set [3] was no less than 80%. The inhibition at 20 ppm in data set [4] was no less than 80%. Further, the pest or weed control at 100 ppm in data set [5] was no less than 80%.

Consider `Cc1ccc(CNC(=O)c2ccc(-c3noc(C(F)(F)F)n3)cc2)cc1` [Compound 4a.1, N-(p-tolylmethyl)-4-[5-(trifluoromethyl)-1,2,4-oxadiazol-3-yl]benzamide], for which the melting point was 198 to 203 °C. For the same compound, the pest or weed control at 200 ppm in data set [3] was no less than 80%. Moreover, in data set [4], the inhibition at 20 ppm is no less than 80%. In addition, in data set [5], the pest or weed control at 100 ppm was no less than 80%.

Consider `Cc1cccc(CNC(=O)c2ccc(-c3noc(C(F)(F)F)n3)cc2)c1` [Compound 4a.2, N-(m-tolylmethyl)-4-[5-(trifluoromethyl)-1,2,4-oxadiazol-3-yl]benzamide], for which the melting point was 135 to 141 °C. In addition, the pest or weed control at 200 ppm in data set [1] was no less than 80%. Further, the pest or weed control at 200 ppm in data set [3] was no less than 80%. Further, in data set [4], the inhibition at 20 ppm is no less than 80%. Further, in data set [5], the pest or weed control at 100 ppm is no less than 80%.

In the case of `COc1ccc(CNC(=O)c2ccc(-c3noc(C(F)(F)F)n3)cc2)cc1` [Compound 4a.3, N-[(4-methoxyphenyl)methyl]-4-[5-(trifluoromethyl)-1,2,4-oxadiazol-3-yl]benzamide], the melting point was in the range of 154 to 159 °C. For the same compound, the pest or weed control at 200 ppm in data set [1] was no less than 80%. The pest or weed control at 200 ppm in data set [3] was no less than 80%. Further, in data set [4], the inhibition at 20 ppm is no less than 80%. Further, in data set [5], the pest or weed control at 100 ppm is no less than 80%.

In turn, `O=C(NCc1ccccc1F)c1ccc(-c2noc(C(F)(F)F)n2)cc1F` [Compound 4b.1, 2-fluoro-N-[(2-fluorophenyl)methyl]-4-[5-(trifluoromethyl)-1,2,4-oxadiazol-3-yl]benzamide] displayed a melting point of 132 to 136 °C. For the same compound, the pest or weed control at 200 ppm in data set [1] was no less than 80%. Further, the pest or weed control at 200 ppm in data set [3] is no less than 80%. For the same compound, in data set [4], the inhibition at 20 ppm is no less than 80%. In addition, the pest or weed control at 100 ppm in data set [5] was no less than 80%.

`O=C(NCc1ccc(F)cc1)c1ccc(-c2noc(C(F)(F)F)n2)cc1F` [Compound 4b.2]: the melting point lay in the range of 145 to 147 °C. In data set [1], the pest or weed control at 200 ppm is no less than 80%. The pest or weed control at 200 ppm in data set [3] is no less than 80%. In addition, the inhibition at 20 ppm in data set [4] is no less than 80%. The pest or weed control at 100 ppm in data set [5] is no less than 80%.

In the case of `CC(NC(=O)c1ccc(-c2noc(C(F)(F)F)n2)cc1F)c1ccccc1` (stereo not shown) [Compound 4b.3, 2-fluoro-N-(1-phenylethyl)-4-[5-(trifluoromethyl)-1,2,4-oxadiazol-3-yl]benzamide], the melting point lay within 121.1 to 123.7 °C. Moreover, the pest or weed control at 200 ppm in data set [1] was no less than 80%. Also, in data set [3], the pest or weed control at 200 ppm is no less than 80%. In data set [5], the pest or weed control at 100 ppm is no less than 80%.

For the compound `O=C(NCc1cccc(F)c1)c1ccc(-c2noc(C(F)(F)F)n2)cc1F` [Compound 4b.4, 2-fluoro-N-[(3-fluorophenyl)methyl]-4-[5-(trifluoromethyl)-1,2,4-oxadiazol-3-yl]benzamide], the melting point was in the range of 129.4 to 130.9 °C. For the same compound, the pest or weed control at 200 ppm in data set [1] is no less than 80%. For the same compound, the pest or weed control at 200 ppm in data set [3] was no less than 80%. In data set [5], the pest or weed control at 100 ppm is no less than 80%.

In the case of `COc1ccccc1CNC(=O)c1ccc(-c2noc(C(F)(F)F)n2)cc1F` [Compound 4b.5, 2-fluoro-N-[(2-methoxyphenyl)methyl]-4-[5-(trifluoromethyl)-1,2,4-oxadiazol-3-yl]benzamide], the melting point was in the range of 113.3 to 114.8 °C. For the same compound, the pest or weed control at 200 ppm in data set [1] was no less than 80%. Moreover, the pest or weed control at 200 ppm in data set [3] was no less than 80%. Further, in data set [4], the inhibition at 20 ppm is no less than 80%. In addition, the pest or weed control at 100 ppm in data set [5] is no less than 80%.

Turning to `O=C(NCc1ccccc1)c1ccc(-c2noc(C(F)(F)F)n2)cc1F` [Compound 4b.6, N-benzyl-2-fluoro-4-[5-(trifluoromethyl)-1,2,4-oxadiazol-3-yl]benzamide], the melting point was in the range of 146 to 147.7 °C. Further, the pest or weed control at 200 ppm in data set [1] is no less than 80%. Moreover, the pest or weed control at 200 ppm in data set [2] was no less than 80%. In addition, the pest or weed control at 200 ppm in data set [3] was no less than 80%. Besides, the pest or weed control at 100 ppm in data set [5] was no less than 80%.

As to `O=C(NCCc1ccc(F)cc1)c1ccc(-c2noc(C(F)(F)F)n2)cc1F` [Compound 4b.7, 2-fluoro-N-[2-(4-fluorophenyl)ethyl]-4-[5-(trifluoromethyl)-1,2,4-oxadiazol-3-yl]benzamide], the melting point lay in the range of 128.2 to 129.4 °C. The pest or weed control at 200 ppm in data set [1] was no less than 80%. In data set [3], the pest or weed control at 200 ppm was no less than 80%. In addition, the inhibition at 20 ppm in data set [4] is no less than 80%. Besides, in data set [5], the pest or weed control at 100 ppm is no less than 80%.

`O=C(NCCc1ccccc1)c1ccc(-c2noc(C(F)(F)F)n2)cc1F` [Compound 4b.8, 2-fluoro-N-(2-phenylethyl)-4-[5-(trifluoromethyl)-1,2,4-oxadiazol-3-yl]benzamide] showed a melting point of 130 to 131.9 °C. The pest or weed control at 200 ppm in data set [1] was no less than 80%. For the same compound, the pest or weed control at 200 ppm in data set [3] was no less than 80%. Moreover, the inhibition at 20 ppm in data set [4] was no less than 80%. Also, the pest or weed control at 100 ppm in data set [5] is no less than 80%.

The compound `O=C(NCc1cccs1)c1ccc(-c2noc(C(F)(F)F)n2)cc1F` [Compound 5b.1, 2-fluoro-N-(2-thienylmethyl)-4-[5-(trifluoromethyl)-1,2,4-oxadiazol-3-yl]benzamide] yielded a melting point of 142.7 to 143 °C. In addition, in data set [1], the pest or weed control at 200 ppm is no less than 80%. Besides, the pest or weed control at 200 ppm in data set [2] was no less than 80%. Moreover, the pest or weed control at 200 ppm in data set [3] is no less than 80%. Besides, the pest or weed control at 100 ppm in data set [5] was no less than 80%.
